US20240409534A1, “CRYSTAL FORM OF METHYLPYRAZOLE-SUBSTITUTED PYRIDOIMIDAZOLE COMPOUND AND PREPARATION METHOD THEREFOR” (priority 2021, published 2024)

Tests used:
Assay type in all cases: cell-based
[1] = test system: bladder cancer cells RT112/84 with high expression of FGFR3; assay: Cell proliferation inhibition, CellTiter-Glo, RT-112/84; details: Homo sapiens, RT112/84, 72 h, RT-112/84, cultured for 3 days
Excerpt: (§1) The compounds of the present disclosure can target and inhibit FGFR and VEGFR pathways, and inhibit tumor cell growth by inhibiting VEGF/VEGFR and FGF/FGFR signaling pathways. In this experiment, human non-small cell lung cancer cells NCI-H1581 with high expression of FGFR1, gastric cancer cells SNU-16 with high expression of FGFR2, and human bladder cancer cells RT112/84 with high expression of FGFR3 were selected. In this experiment, the inhibitory effect of compounds on cell proliferation was investigated by detecting the effect of the compounds of the present disclosure on the cell viability in vitro in the tumor cell lines NCI-H1581, SNU-16 and RT-112/84.
(§2) Regular passage, and cells in logarithmic growth phase were taken for plating.
(§3) • (1) Cells were stained with trypan blue and viable cells were counted. • (2) The cell concentration was adjusted to an appropriate concentration.
(§4) • (3) 90 μL of cell suspension per well was added to a culture plate, and cell-free culture solution was added to the blank control well. • (4) The plate was cultured overnight in a 37° C., 5% CO2 incubator with 100% relative humidity.
(§5) • (1) Preparation of 10× compound working solution: 78 μL of cell culture medium was added to a V-bottom 96-well plate, and 2 μL of compound was pipetted from a 400× compound storage plate and added to the cell culture medium of the 96-well plate. […]

[2] = test system: NCI-H1581 cells with high expression of FGFR1; assay: Cell proliferation inhibition, CellTiter-Glo, NCI-H1581; details: Homo sapiens, 72 h, NCI-H1581, cultured for 3 days
Excerpt: as §1, §2, §3, §4, §5

Ba/F3-TEL-VEGFR2 = assay: In vitro proliferation of BaF3 cell line, Ba/F3-TEL-VEGFR2; details: Ba/F3-TEL-VEGFR2, 72 h
Protocol: The mother solution was prepared into a total of 9 concentration gradients (10.0000 mM, 2.5000 mM, 0.6250 mM, 0.1563 mM, 0.0391 mM, 0.0098 mM, 0.0024 mM, 0.0006 mM and 0.0002 mM) in a 4-fold dilution and stored in a 96-well plate (Beaver, Suzhou), while the same volume of DMSO solvent was used as a negative control. • 1. Cell suspension in logarithmic growth phase was taken and inoculated in a white 96-well cell culture plate (Corning 3917, NY, USA) with a volume of 95 μL per well (2000 cells/well). • 2. Diluted medium-compound mixture was added in a volume of 5 μL per well, respectively, and the final concentration of DMSO in Ba/F3-TEL-FLT1 (VEGFR1), Ba/F3-TEL-FLT4 (VEGFR3) and Ba/F3-TEL-VEGFR2 cells was 0.1%.
• 3. The plate was incubated in a 37° C., 5% CO2 incubator for 72 h. • 4. The proliferation inhibitory activity and data analysis of the compound by CellTiter-Glo method were the same as in Experimental embodiment 1.

Question: How did the IC50 [1] turn out when `CS(=O)(=O)O.Cn1cc(-c2ccn3c(-c4cc(NS(C)(=O)=O)nc(-c5ccc(F)cc5F)c4)cnc3c2)cn1` was run?
Answer: Its IC50 is 167 nM.

Question: And the IC50 [2]?
Answer: The IC50 was 117 nM.

Question: And the Maximum inhibition (Ba/F3-TEL-VEGFR2)?
Answer: Its Maximum inhibition is 99.99%.

Question: And the Minimum inhibition (Ba/F3-TEL-VEGFR2)?
Answer: The Minimum inhibition was 8.23%.

Question: What about the IC50 (Ba/F3-TEL-VEGFR2; Mus musculus, BaF3, read-out: Relative IC50) of the same compound?
Answer: Its IC50 is roughly 9.7 nM.
